# Results published in patent publication US8338565B2, “Macrocyclic compounds for inhibition of tumor necrosis factor alpha” (Ensemble Therapeutics Corporation, priority 2008, dated 2012).
# Numbered stars: 1 amine (or outer) side, 2 acyl side, 3 side chain; on linkers, the order of the positions; unused ones are H or OH. Bridge positions count the residues as written; N and C are the ends. Square brackets hold non-standard residues; d marks the D form. Peptide text beside a SMILES is read from it. Phe(4-CF3) = N[C@@H](Cc1ccc(C(F)(F)F)cc1)C(=O)O; Bip = N[C@@H](Cc1ccc(-c2ccccc2)cc1)C(=O)O; dBip = N[C@H](Cc1ccc(-c2ccccc2)cc1)C(=O)O; dPhe(4-NH2) = Nc1ccc(C[C@@H](N)C(=O)O)cc1; Phe(4-NH2) = Nc1ccc(C[C@H](N)C(=O)O)cc1; d(hPhe) = N[C@H](CCc1ccccc1)C(=O)O; 2Thi = N[C@@H](Cc1cccs1)C(=O)O; d2Thi = N[C@H](Cc1cccs1)C(=O)O; Suc = O=C(CCC(=O)[*:2])[*:1]
# Legend:
# rat paw edema model = test: Rat paw edema model (carrageenan), anti-inflammatory activity; assay type: in vivo, Sprague-Dawley (SD) rats
# Procedure: Compounds 3, 4, 10 and 202 were tested in a rat paw edema model to determine anti-inflammatory activity. Seven groups (one for Vehicle A [15 mL PEG400, 3 mL Graves Grain alcohol (190 proof), 1.8 mL dimethylacetamide and 10.2 mL deionized water] alone as a negative control, one for Vehicle B [0.1M NaHCO3] alone as a negative control, one for each of the four test compounds dissolved in Vehicle A, and one for indomethacin dissolved in Vehicle B as a positive control), each group containing six Sprague-Dawley (SD) rats (180-200 g) randomized by weight. Initial paw volumes were measured by placing the right hind limb of the rat up to the top of the hock in a beaker of water sitting on a scale that had been tared to zero and recording the readout.
# Rats were pre-treated with either i) one of the test compounds, or ii) a positive or negative control. Vehicle A alone and test compound dissolved in Vehicle A (Compound 3-1.0 mg/kg; Compound 4-0.4 mg/kg; Compound 10-0.5 mg/kg; Compound 202-0.3 mg/kg) were administered by intravenous injection. Vehicle B alone and indomethacin (5 mg/kg in 0.1M NaHCO3) was administered by intraperitoneal injection. Thirty minutes after this pretreatment, rats were anesthetized and injected with 0.1 mL of carrageenan (10 mg/mL in water) in the subplantar region of the right hind foot using a ½ inch 26 gauge needle attached to a 1 cc syringe.
# At 2, 4 and 6 hours post-carrageenan injection, the right hind foot of each rat was measured for paw volume as described above.
# We next investigated the effect of varying intravenous doses of Compound 202 (0.05, 0.10, 0.30, and 1.00 mg/kg) in the same model using the same protocol (6 rats per group). […] We also investigated the affect of oral dosing (10 mg/kg) of Compound 202 in the same model. For oral dosing, a 2.5 mg/mL suspension of Compound 202 was prepared in Vehicle A. Rats were orally administered 4 mL/kg of that suspension.
# [1] = system: TNF-α (degradation of IkB in HeLa cells or A431 cells); test: Human cell-based assay: inhibition of TNF-α induced degradation of IkB; conditions: HeLa or A431 cells; for inhibition at 5 µM: 5 μM compound, read-out: Inhibition at Various Compound Concentrations, 5 μM; for inhibition at 10 µM: 10 μM compound, read-out: Inhibition at Various Compound Concentrations, 10 μM
# [2] = target: T1, TNFα / TNFα receptor (TNFα R1/Fc) (Homo sapiens, UniProt P01375); test: Inhibition of binding of TNFα to the TNFα receptor (plate ELISA competition); conditions: Table 2; read-out: Activity (IC50, inhibition of TNFα binding to TNFα R1/Fc)
# T1 construct: purchased R&D Systems
# How it was run: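 Plates were coated with TNFα at 15 nM. Test compound and 8.33 nM receptor-Fc (PBST, 2% DMSO) were first mixed in solution for 30 min at room temperature, then transferred to the plates for another 30 min. Competition was read by absorbance at 450 nm after HRP anti-human IgG Fc detection with TMB.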
# [3] = Table 4, 1 mg/kg IV, 2 h post-carrageenan
# [4] = Table 4, 1 mg/kg IV, 4 h post-carrageenan
# [5] = Table 4, 1 mg/kg IV, 6 h post-carrageenan
# [6] = Table 8, 1 mg/kg IV, 2 h post-carrageenan
# [7] = Table 8, 1 mg/kg IV, 4 h post-carrageenan
# [8] = Table 8, 1 mg/kg IV, 6 h post-carrageenan
# T1 sequence (P01375 77-233 limits assumed, species assumed): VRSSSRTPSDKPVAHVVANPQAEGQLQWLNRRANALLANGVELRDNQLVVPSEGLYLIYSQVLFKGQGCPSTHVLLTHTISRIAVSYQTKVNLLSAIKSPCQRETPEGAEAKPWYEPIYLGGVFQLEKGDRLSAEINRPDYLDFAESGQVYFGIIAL
smiles,measurement,setting,value
O=C1CCC(=O)N[C@H](CCc2ccccc2)C(=O)N[C@@H](Cc2ccc(C(F)(F)F)cc2)C(=O)N[C@H](Cc2ccccc2)C(=O)N[C@@H](C(=O)O)Cc2ccc(cc2)N1 [Compound 3] ([d(hPhe)][Phe(4-CF3)][dF][dPhe(4-NH2)]-OH; linker N-4 via Suc),Change in Paw Volume,"rat paw edema model; Table 3, 1.0 mg/kg IV, 2 h post-carrageenan",0.69 ± 0.14 mL
same,Change in Paw Volume,"rat paw edema model; Table 3, 1.0 mg/kg IV, 4 h post-carrageenan",1.16 ± 0.32 mL
same,Change in Paw Volume,"rat paw edema model; Table 3, 1.0 mg/kg IV, 6 h post-carrageenan",1.22 ± 0.31 mL
same,inhibition at 5 µM,[1],< 10%
same,inhibition at 10 µM,[1],< 10%
same,IC50,[2],10 to 30 µM
O=C(O)[C@@H]1Cc2ccc(cc2)NC(=O)[C@H](O)[C@@H](O)C(=O)N[C@H](Cc2cccs2)C(=O)N[C@@H](Cc2ccc(-c3ccccc3)cc2)C(=O)N[C@H](Cc2ccccc2)C(=O)N1 [Compound 4],Change in Paw Volume,"rat paw edema model; Table 3, 0.4 mg/kg IV, 2 h post-carrageenan",0.72 ± 0.13 mL
same,Change in Paw Volume,"rat paw edema model; Table 3, 0.4 mg/kg IV, 4 h post-carrageenan",1.16 ± 0.16 mL
same,Change in Paw Volume,"rat paw edema model; Table 3, 0.4 mg/kg IV, 6 h post-carrageenan",1.16 ± 0.25 mL
same,inhibition at 10 µM,[1],< 10%
same,IC50,[2],10 to 30 µM
O=C1CCC(=O)N[C@H](Cc2cccs2)C(=O)N[C@@H](Cc2ccc(-c3ccccc3)cc2)C(=O)N[C@H](Cc2ccccc2)C(=O)N[C@H](C(=O)N[C@@H](Cc2ccccc2)C(=O)O)Cc2ccc(cc2)N1 [Compound 10] ([d2Thi][Bip][dF][Phe(4-NH2)]F-OH; linker N-4 via Suc),Change in Paw Volume,"rat paw edema model; Table 3, 0.5 mg/kg IV, 2 h post-carrageenan",0.54 ± 0.23 mL
same,Change in Paw Volume,"rat paw edema model; Table 3, 0.5 mg/kg IV, 4 h post-carrageenan",1.11 ± 0.31 mL
same,Change in Paw Volume,"rat paw edema model; Table 3, 0.5 mg/kg IV, 6 h post-carrageenan",1.23 ± 0.28 mL
same,inhibition at 25 µM,"[1]; 25 μM compound, read-out: Inhibition at Various Compound Concentrations, 25 μM",> 80%
same,IC50,[2],10 to 30 µM
O=C1CCC(=O)N[C@H](CCc2ccccc2)C(=O)N[C@@H](Cc2ccc(C(F)(F)F)cc2)C(=O)N[C@H](Cc2ccccc2)C(=O)N[C@H](C(=O)N[C@@H](Cc2ccccc2)C(=O)O)Cc2ccc(cc2)N1 [Compound 11] ([d(hPhe)][Phe(4-CF3)][dF][Phe(4-NH2)]F-OH; linker N-4 via Suc),Change in Paw Volume,rat paw edema model; [3],1.37 ± 0.16 mL
same,Change in Paw Volume,rat paw edema model; [4],1.43 ± 0.13 mL
same,Change in Paw Volume,rat paw edema model; [5],1.45 ± 0.08 mL
same,inhibition at 5 µM,[1],10 to 50%
same,inhibition at 10 µM,[1],50 to 80%
same,IC50,[2],< 10 µM
O=C1CCC(=O)N[C@H](Cc2cccs2)C(=O)N[C@@H](Cc2ccc(-c3ccccc3)cc2)C(=O)N[C@H](Cc2ccccc2)C(=O)N[C@H](C(=O)N[C@H](Cc2ccccc2)C(=O)O)Cc2ccc(cc2)N1 [Compound 33] ([d2Thi][Bip][dF][Phe(4-NH2)][dF]-OH; linker N-4 via Suc),Change in Paw Volume,rat paw edema model; [3],1.10 ± 0.22 mL
same,Change in Paw Volume,rat paw edema model; [4],1.49 ± 0.11 mL
same,Change in Paw Volume,rat paw edema model; [5],1.46 ± 0.07 mL
same,inhibition at 5 µM,[1],10 to 50%
same,inhibition at 10 µM,[1],50 to 80%
same,IC50,[2],< 10 µM
O=C1CCC(=O)N[C@@H](Cc2cccs2)C(=O)N[C@H](Cc2ccc(-c3ccccc3)cc2)C(=O)N[C@@H](Cc2ccccc2)C(=O)N[C@H](C(=O)O)Cc2ccc(cc2)N1 [Compound 493] ([2Thi][dBip]F[Phe(4-NH2)]-OH; linker N-4 via Suc),Change in Paw Volume,rat paw edema model; [6],1.04 ± 0.15 mL
same,Change in Paw Volume,rat paw edema model; [7],1.12 ± 0.10 mL
same,Change in Paw Volume,rat paw edema model; [8],1.03 ± 0.15 mL
same,IC50,[2],< 10 µM
O=C1CCC(=O)N[C@@H](Cc2cccs2)C(=O)N[C@H](Cc2ccc(-c3ccccc3)cc2)C(=O)N[C@@H](Cc2ccccc2)C(=O)N[C@@H](C(=O)O)Cc2ccc(cc2)N1 [Compound 500] ([2Thi][dBip]F[dPhe(4-NH2)]-OH; linker N-4 via Suc),Change in Paw Volume,rat paw edema model; [6],0.98 ± 0.24 mL
same,Change in Paw Volume,rat paw edema model; [7],1.07 ± 0.21 mL
same,Change in Paw Volume,rat paw edema model; [8],0.98 ± 0.14 mL
same,IC50,[2],10 to 30 µM
O=C1COc2ccc(cc2)C[C@@H](C(=O)O)NC(=O)[C@H](CCc2ccccc2)NC(=O)[C@@H](Cc2ccc(-c3ccccc3)cc2)NC(=O)[C@H](Cc2ccncc2)N1 [Compound 506],Change in Paw Volume,"rat paw edema model; Table 5, 1 mg/kg IV, 2 h post-carrageenan",0.74 ± 0.18 mL
same,Change in Paw Volume,"rat paw edema model; Table 5, 1 mg/kg IV, 4 h post-carrageenan",1.05 ± 0.17 mL
same,Change in Paw Volume,"rat paw edema model; Table 5, 1 mg/kg IV, 6 h post-carrageenan",0.86 ± 0.15 mL
same,IC50,[2],< 10 µM
"COc1ccc2c(c1)c(CC(=O)O)c(C)n2C(=O)c1ccc(Cl)cc1 [indomethacin, reference compound]",Change in Paw Volume,"rat paw edema model; Table 3, positive control 5 mg/kg IP, 2 h post-carrageenan",0.61 ± 0.10 mL
same,Change in Paw Volume,"rat paw edema model; Table 3, positive control 5 mg/kg IP, 4 h post-carrageenan",0.92 ± 0.12 mL
same,Change in Paw Volume,"rat paw edema model; Table 3, positive control 5 mg/kg IP, 6 h post-carrageenan",0.99 ± 0.10 mL
same,Change in Paw Volume,"rat paw edema model; Table 4, positive control IP (5 mg/kg), 2 h post-carrageenan",0.61 ± 0.08 mL
same,Change in Paw Volume,"rat paw edema model; Table 4, positive control IP (5 mg/kg), 4 h post-carrageenan",0.82 ± 0.05 mL
same,Change in Paw Volume,"rat paw edema model; Table 4, positive control IP (5 mg/kg), 6 h post-carrageenan",0.90 ± 0.11 mL
same,Change in Paw Volume,"rat paw edema model; Table 5, positive control IP (5 mg/kg), 2 h post-carrageenan",0.82 ± 0.08 mL
same,Change in Paw Volume,"rat paw edema model; Table 5, positive control IP (5 mg/kg), 4 h post-carrageenan",0.94 ± 0.10 mL
same,Change in Paw Volume,"rat paw edema model; Table 5, positive control IP (5 mg/kg), 6 h post-carrageenan",0.87 ± 0.11 mL
same,Change in Paw Volume,"rat paw edema model; Table 6, positive control IP (5 mg/kg), 2 h post-carrageenan",0.63 ± 0.08 mL
same,Change in Paw Volume,"rat paw edema model; Table 6, positive control IP (5 mg/kg), 4 h post-carrageenan",0.79 ± 0.17 mL
same,Change in Paw Volume,"rat paw edema model; Table 6, positive control IP (5 mg/kg), 6 h post-carrageenan",0.82 ± 0.21 mL
same,Change in Paw Volume,"rat paw edema model; Table 7, positive control IP (5 mg/kg), 2 h post-carrageenan",0.75 ± 0.14 mL
same,Change in Paw Volume,"rat paw edema model; Table 7, positive control IP (5 mg/kg), 4 h post-carrageenan",1.02 ± 0.09 mL
same,Change in Paw Volume,"rat paw edema model; Table 7, positive control IP (5 mg/kg), 6 h post-carrageenan",1.07 ± 0.08 mL
same,Change in Paw Volume,"rat paw edema model; Table 8, positive control IP (5 mg/kg), 2 h post-carrageenan",0.76 ± 0.13 mL
same,Change in Paw Volume,"rat paw edema model; Table 8, positive control IP (5 mg/kg), 4 h post-carrageenan",0.92 ± 0.09 mL
same,Change in Paw Volume,"rat paw edema model; Table 8, positive control IP (5 mg/kg), 6 h post-carrageenan",0.74 ± 0.08 mL
same,Change in Paw Volume,"rat paw edema model; Table 9, positive control IP (5 mg/kg), 2 h post-carrageenan",0.75 ± 0.14 mL
same,Change in Paw Volume,"rat paw edema model; Table 9, positive control IP (5 mg/kg), 4 h post-carrageenan",1.02 ± 0.09 mL
same,Change in Paw Volume,"rat paw edema model; Table 9, positive control IP (5 mg/kg), 6 h post-carrageenan",1.07 ± 0.08 mL
same,Change in Paw Volume,"rat paw edema model; Table 10, positive control IP (5 mg/kg), 2 h post-carrageenan",0.63 ± 0.08 mL
same,Change in Paw Volume,"rat paw edema model; Table 10, positive control IP (5 mg/kg), 4 h post-carrageenan",0.79 ± 0.17 mL
same,Change in Paw Volume,"rat paw edema model; Table 10, positive control IP (5 mg/kg), 6 h post-carrageenan",0.82 ± 0.21 mL
